Test [1] deals with T1, NLRP3 inflammasome (Rattus norvegicus, UniProt D4A523).
T1 construct: host or cells: rat PBMCs
The test can be described thus: Inhibition of IL-1β production in rat PBMCs stimulated by LPS + nigericin. The class given is cell-based. The settings on record: Rat PBMC, read-out: Geo Av IC50, IL-1β. An excerpt:
(§1) Inflammasome activation and whole blood assays were essentially carried out as described earlier. Details can be found in the supplementary information section accompanying this publication. A protocol for blood draws from healthy volunteers and use of the blood in preclinical assays was approved by Western Institutional Review Board, Inc (Puyallup, WA, USA). Informed consent was obtained from each donor prior to the first blood draw.
4H). MS: m/z 433.1 (M+H+).
Inflammasome activation.PBMCs (iXCells Biotechnologies, San Diego, USA) were thawed the day before the assay and seeded in complete medium (RPMI 1640 medium with GlutaMAX, supplemented with an additional 2.5 g/L D-glucose, 10% Fet al Bovine Serum, 100 mM Sodium Pyruvate, 1% Penicillin/Streptomycin, 10 mM HEPES and 0.05 mM β -mercaptoethanol) in polystyrene V-bottom 96-well plates at 5x10^4 cells per well and incubated overnight at 37°C with 5% CO 2. […]
flagellin, prepared in Opt iMEM and combined with Lipofectamine 2000. […] After priming Nlrp3 -/- mBMDMs with 100 ng/mL of LPS for 3- 5 h, cells were exposed to 100 ng/mL L18- MDP and incubated overnight.At the end of the incubation period of the assays above, plates were briefly centri fuged and hal f of the cell culture supern atant remo ved and either analysed i mmediately or stored at - 80°C for subs equent cytokine […]

Test [2] has as its target NLRP3 inflammasome (Homo sapiens, UniProt Q96P20). The test can be described thus: Inhibition of IL-1β production in LPS + ATP stimulated (canonical) human whole blood. The format is cell-based. On the set-up: host or cells: fresh heparinised human whole blood from healthy volunteers. The settings on record: read-out: Geo Av IC50, IL-1β. Here is the method: as §1
Cell viability was determined by addition of an equal volume of CellTiter-Glo® 2.0 reagent (Promega) to the remaining cells/supernatant in each well. Intracellular Caspase-1 activity was measured using the Caspase-Glo® assay (Promega) according to the manufacturer’s instructions. The biochemical capsase-1 assay was conducted at Reaction Biology Corporation (Malvern, USA). Human IL-1β, IL-1α, and TNFα and mouse IL-1β were measured in cell culture supernatants using homogeneous time resolved fluorescence assay kits (HTRF, Cisbio, Codolet, France). Human IL-18 was measured in cell culture supernatants using an ELISA kit (R&D Systems, Minneapolis, MN, USA). Plasma IL-1β concentrations were determined by Quantikine® ELISA (R&D Systems, Minneapolis, MN). […]
flagellin, prepared in Opt iMEM and combined with Lipofectamine 2000. […]

By IC50 is commonly meant the concentration needed to halve the response being measured.

Chain of NLRP3 inflammasome (Homo sapiens, UniProt Q96P20) (Q96P20 whole entry): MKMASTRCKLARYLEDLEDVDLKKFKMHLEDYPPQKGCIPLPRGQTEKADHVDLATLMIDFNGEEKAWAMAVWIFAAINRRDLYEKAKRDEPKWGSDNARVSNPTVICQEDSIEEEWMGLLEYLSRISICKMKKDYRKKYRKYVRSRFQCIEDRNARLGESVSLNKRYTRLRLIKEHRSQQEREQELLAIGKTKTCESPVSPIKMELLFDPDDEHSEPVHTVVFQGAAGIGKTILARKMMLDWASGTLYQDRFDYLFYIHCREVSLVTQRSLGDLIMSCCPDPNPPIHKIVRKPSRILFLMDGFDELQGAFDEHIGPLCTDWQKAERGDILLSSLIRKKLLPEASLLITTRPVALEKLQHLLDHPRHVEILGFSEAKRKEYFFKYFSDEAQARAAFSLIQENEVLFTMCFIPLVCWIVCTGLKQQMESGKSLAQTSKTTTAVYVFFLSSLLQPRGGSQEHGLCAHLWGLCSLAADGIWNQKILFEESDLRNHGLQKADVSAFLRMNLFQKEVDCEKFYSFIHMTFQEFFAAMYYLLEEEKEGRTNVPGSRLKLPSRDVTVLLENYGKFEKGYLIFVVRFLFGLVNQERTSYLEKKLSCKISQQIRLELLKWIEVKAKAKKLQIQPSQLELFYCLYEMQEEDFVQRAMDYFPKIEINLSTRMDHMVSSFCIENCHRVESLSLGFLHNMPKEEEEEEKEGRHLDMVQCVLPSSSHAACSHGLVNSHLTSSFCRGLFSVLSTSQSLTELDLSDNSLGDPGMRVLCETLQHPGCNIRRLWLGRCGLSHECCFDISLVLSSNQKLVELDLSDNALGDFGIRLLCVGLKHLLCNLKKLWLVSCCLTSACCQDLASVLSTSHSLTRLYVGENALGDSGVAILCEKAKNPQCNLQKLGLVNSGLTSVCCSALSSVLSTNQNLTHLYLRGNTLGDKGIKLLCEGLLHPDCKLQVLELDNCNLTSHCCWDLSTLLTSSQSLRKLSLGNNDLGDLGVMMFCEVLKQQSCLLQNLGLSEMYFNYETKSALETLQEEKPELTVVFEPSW
T1 sequence (D4A523 whole entry): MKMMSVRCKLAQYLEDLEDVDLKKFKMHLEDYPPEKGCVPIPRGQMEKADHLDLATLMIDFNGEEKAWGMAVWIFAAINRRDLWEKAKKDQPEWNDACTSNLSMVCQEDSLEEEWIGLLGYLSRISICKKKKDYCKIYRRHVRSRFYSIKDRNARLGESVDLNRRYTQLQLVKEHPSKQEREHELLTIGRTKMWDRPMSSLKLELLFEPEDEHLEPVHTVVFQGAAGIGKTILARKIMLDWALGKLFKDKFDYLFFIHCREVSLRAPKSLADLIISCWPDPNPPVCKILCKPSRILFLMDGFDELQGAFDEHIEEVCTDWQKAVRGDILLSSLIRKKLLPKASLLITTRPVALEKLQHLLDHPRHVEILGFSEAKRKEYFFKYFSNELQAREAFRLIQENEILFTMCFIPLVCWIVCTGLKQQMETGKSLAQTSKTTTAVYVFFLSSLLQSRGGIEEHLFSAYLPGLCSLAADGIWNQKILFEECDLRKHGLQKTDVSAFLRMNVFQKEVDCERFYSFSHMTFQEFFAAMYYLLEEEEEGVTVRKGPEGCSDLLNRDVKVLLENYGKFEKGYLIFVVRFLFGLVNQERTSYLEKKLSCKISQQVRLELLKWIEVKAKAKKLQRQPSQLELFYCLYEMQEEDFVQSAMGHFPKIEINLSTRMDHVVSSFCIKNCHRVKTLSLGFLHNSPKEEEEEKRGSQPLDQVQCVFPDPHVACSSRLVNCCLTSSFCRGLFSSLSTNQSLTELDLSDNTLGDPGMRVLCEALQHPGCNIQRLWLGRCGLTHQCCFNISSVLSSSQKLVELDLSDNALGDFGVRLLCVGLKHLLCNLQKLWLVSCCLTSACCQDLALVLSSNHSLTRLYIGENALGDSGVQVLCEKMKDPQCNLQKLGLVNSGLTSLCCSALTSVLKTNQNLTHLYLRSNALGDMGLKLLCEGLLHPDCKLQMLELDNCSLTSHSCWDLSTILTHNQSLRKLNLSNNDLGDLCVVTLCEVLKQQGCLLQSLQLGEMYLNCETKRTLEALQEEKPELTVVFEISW

As to `CO[C@@H]1COc2c(S(=O)(=O)NC(=O)Nc3c4c(cc5c3CCC5)CCC4)cnn2C1` [JT002], the IC50 amounted to 159 nM in test [1] and 100 nM in test [2].

The record behind these values is paper PMC10439952, “JT002, a small molecule inhibitor of the NLRP3 inflammasome for the treatment of autoinflammatory disorders” (Scientific Reports, 2023).
